{
  "source": "patent US9206206B2",
  "about": "“Oxidized lipid compounds and uses thereof” (Vascular Biogenics Ltd., priority 2008, dated 2015)",
  "key": {"[1]": {"tested_on": "tyrosine phosphorylation in primary macrophages", "experiment": "Tyrosine phosphorylation assay in primary macrophages (Western blot)", "type": "cell-based, mouse", "description": "Tyrosine Phosphorylation Assay: Tyrosine phosphorylation in macrophages or bone marrow-derived cells (BMDCs) of mice was assayed. Mouse primary macrophages were isolated from the peritoneum of 7-8 week old C57BL/6 female mice following thioglycollate stimulation. […] Mouse primary bone marrow-derived cells were isolated by flushing bone marrow out of the femur and tibia of female SJL mice using cold RPMI-1640. […] Cells were then washed, resuspended in the same buffer and depleted of B and T cells on a Midi-Macs separation unit through a LD or LS column (Miltenyi Biotech). […] The medium was replaced every other day. […] Proteins with phosphorylated tyrosine were then observed by Western blot, using a monoclonal anti-phosphotyrosine antibody. Western blotting for ERK1/2 or α-tubulin was performed as a control for protein loading."}, "IL12/23 p40 mRNA": {"tested_on": "IL12/23 p40 mRNA", "experiment": "In vitro IL12/23 p40 mRNA expression assay", "type": "cell-based, mouse", "conditions": "CD11c+ dendritic cells, 20 μg/ml, 10 μg/ml peptidoglycan, 2-4 hours following administration", "description": "In Vitro IL12/23 p40 mRNA Expression Assay:\nBone marrow-derived cell cultures were prepared as described hereinabove. On days 5-6 post culturing, the cell cultures were enriched for CD11c+ dendritic cells (>90%) with mouse CD11c microbeads over MS or LS columns (Miltenyi Biotech). CD11c+ dendritic cells were stimulated for 1, 2 and 3 hours with 10 μg/ml peptidoglycan alone or in the presence of 20 μg/ml of the tested compound added 1 hour before activation. RNA was extracted from cells using RNeasy mini kit (Qiagen, Valencia, Calif.). For cDNA preparation, 1 μg of RNA was combined with Oligo dT for 10 minutes at 70° C., 1st strand buffer. Dithiothreitol and dNTP and super-script reverse transcriptase (Invitrogen, Carlsbad, Calif.) were added for 50 minutes at 42° C. and the reaction was ended by incubation for an additional 15 minutes at 70° C. All real time PCR reactions were performed using LightCycler Taqman master (Roche Diagnostics, Mannheim, Germany) and run on the LightCycler machine (Roche). Ready sets of probe with primers were used for IL12/23 p40 and GAPDH assays (Applied Biosystems, assays #Mm01288992_m1 and Mm99999915_g1, respectively) with the latter served to normalize RNA levels. 20 μg/ml CI-201 and phosphatidylcholine (PC) were used as positive and negative controls respectively."}, "C57BL/6 mice": {"tested_on": "C57BL/6 mice", "experiment": "In vivo MOG-induced experimental autoimmune encephalomyelitis (EAE) assay", "design": "species or system mouse", "conditions": "4 mg/kg orally, 5 consecutive days starting 5 days before immunization", "description": "In Vivo Myelin Oligodendrocyte Glycoprotein (MOG)-Induced Experimental Autoimmune Encephalomyelitis (EAE) Assay:\nC57BL/6 mice were orally administered with the indicated amount of the tested compound in a final volume of 200 μl for 5 consecutive days starting 5 days before immunization.\nFor EAE induction, mice were immunized subcutaneously with an emulsion containing 1.5 mg/ml MOG peptide 35-55 ([…]) and 2.5 mg/ml CFA (complete Freund's adjuvant), 100 μl emulsion being injected into each flank. Pertussis toxin (500 ng in 500 μl PBS) was administered intraperitoneally immediately and 48 hours after the immunization.\nOnset of EAE was evaluated by a mean clinical score."}, "[2]": {"tested_on": "mouse peritoneal macrophages", "experiment": "In vitro toxicity assay", "type": "cell-based", "description": "Thioglycollate-elicited mouse peritoneal macrophages were washed, counted and seeded (2×10^5 to 3×10^5 cells per well in 24-well plates) in triplicate wells in medium containing RPMI-1640, L-glutamine, 10% FBS and antibiotics (penicillin/streptomycin). After a recovery period of 24 hours, the tested compound (or controls) was added to the cell medium at doses of 2, 10, 20, 50, 100 or 150 μg/ml, keeping the added volume equal in all treatments by complementing the volume with solvent.\nFollowing addition of the compounds, the cells were incubated for an additional 24 hours, after which the cells were washed, fixed with a solution of 10% methanol/10% acetic acid and stained with crystal violet (0.4% in 20% ethanol). Cell numbers were measured by determining optical density at 595 nm. Cells incubated with vehicle (PBS with 1% ethanol) were used as a control, to which cell numbers in treated samples were normalized.\nData are presented as mean±standard deviation. Statistical significance relative to vehicle-treated cells was calculated using a student's t-test, with p-values of less than 0.05 being considered as indicating statistical significance."}, "DBA/1 male mice": {"tested_on": "DBA/1 male mice", "experiment": "In vivo collagen-induced arthritis (CIA) assay", "design": "species or system mouse", "description": "In Vivo Collagen-Induced Arthritis (CIA) Assay:\nDBA/1 male mice were immunized to induce arthritis by a collagen injection containing complete Freund's adjuvant (CFA) in the base of the tail (day 0) and a booster shot in the flank (day 21). Mice were followed for arthritis development until day 36. Administration by gavage of the tested compound and control substances began on day 22 and was carried out on a daily basis (6 times per week).\nOnset of arthritis was evaluated by an arthritis clinical score."}, "IL12/23 p40": {"tested_on": "IL12/23 p40", "experiment": "In vitro IL12/23p40 production assay", "type": "cell-based, mouse", "conditions": "bone marrow-derived cells, compound 1, 2.5, 5, 10 or 20 μg/ml for 1 hour, then 10 μg/ml peptidoglycan 24 hours, ELISA", "description": "In Vitro IL12/23p40 Production Assay:\nBone marrow derived cells (BMDCs) were obtained from the femur and tibia of female C57BL mice, cultured, and seeded at a concentration of 10^6 cells/ml 5-6 days post-culturing, as described hereinabove for the tyrosine phosphorylation assay.\nThe tested compound was then added to the cells for 1 hour at a concentration of 1, 2.5, 5, 10 or 20 μg/ml. The cells were activated for IL12/23p40 production by incubation for 24 hours with 10 μg/ml peptidoglycan (PGN). Cytokine production from the supernatant was measured by ELISA. Activated cells without the tested compound were used as the control."}, "LDL-RD male mice": {"tested_on": "LDL-RD male mice", "experiment": "In vivo atherosclerotic lesion assay, LDL-RD mice", "conditions": "1 mg/mouse (60 mg/kg) orally, 5 treatments every other day, western diet 5 weeks, aortic sinus", "description": "(§1) In Vivo Atherosclerotic Lesion Assay:\n12-16-week old LDL-RD male mice were orally administered with 0.2 ml of PBS or PBS with an indicated amount of the tested compound, once a day, every other day, for 5 treatments. The mice were challenged with western diet for 5 weeks and then sacrificed.\n(§2) The quantification of atherosclerotic lesions was done by calculating the lesion size in the aortic sinus as previously described [Paigen et al., Quantitative assessment of atherosclerotic lesions in mice. Atherosclerosis 1987; 68:231-240] with a few modifications. Briefly, the heart and the aorta were removed from the animals, and the peripheral fat was cleaned carefully. The hearts were embedded in Optimal Cutting Temperature (OCT) gel and frozen. Aortic sinus lesion was determined from 3-8 Oil red O-stained serial sections (10 μm thick), throughout the aortic sinus (400 μm). The lesion area was calculated using a computer analyzing method (Image Pro Plus software [version 4.5.1.29], Medical Cybernetics Corporation)."}, "ApoE KO mice": {"tested_on": "ApoE KO mice", "experiment": "In vivo atherosclerotic lesion assay, ApoE KO mice", "conditions": "1 mg/mouse (40 mg/kg) orally, 5 treatments every other day, sacrificed by the end of 8 weeks, aortic sinus", "description": "as §1\nAlternatively, 14-16-week old ApoE KO mouse were orally administered with 0.2 ml of PBS or PBS with an indicated amount of the tested compound, once a day, every other day, for 5 treatments, and sacrificed by the end of 8 weeks.\nas §2"}},
  "note": "Entries after “also recorded” stand apart in the source; their conditions may differ.",
  "data": [
    {"compound": "CCCCCCCCCCCCCCCCOC[C@H](COP(=O)([O-])OCC[N+](C)(C)C)OCCCCC(=O)O", "note": "[CI-201, 1-hexadecyl-2-(4-carboxy)butyl-sn-glycero-3-phosphocholine, reference compound]", "values": [
      {"measurement": "phosphotyrosine levels", "setting": "[1]; 20 ng/ml", "value": "reduction"},
      {"measurement": "phosphotyrosine levels", "setting": "[1]; 10 μg/ml, 10 minutes", "value": "caused an increase in phosphotyrosine levels"},
      {"measurement": "phosphotyrosine levels", "setting": "[1]; 20 μg/ml, 10 minutes", "value": "caused a decrease in phosphotyrosine levels; also recorded: caused a reduction in phosphotyrosine levels"},
      {"measurement": "IL12/23 p40 mRNA expression", "setting": "IL12/23 p40 mRNA", "value": "inhibition by CI-202 was comparable to the inhibition by CI-201"}
    ]},
    {"compound": "CCCCCCCCCCCCCCCCOCC(COP(=O)(O)OCCN)OCCCCC(=O)O", "note": "(stereo not drawn) [CI-202, 1-Hexadecyl-2-(4-carboxy)butyl-glycero-3-phosphoethanolamine]", "values": [
      {"measurement": "phosphotyrosine levels", "setting": "[1]; 10 μg/ml, 10 minutes", "value": "induction of tyrosine phosphorylation"},
      {"measurement": "phosphotyrosine levels", "setting": "[1]; 20 μg/ml, 10 minutes", "value": "reduction in phosphotyrosine levels"},
      {"measurement": "development of MOG-induced EAE (mean clinical score)", "setting": "C57BL/6 mice", "value": "delayed disease onset and reduced clinical manifestation of EAE"},
      {"measurement": "dose at which (significant) toxicity was detected", "setting": "[2]; mouse, 24 h", "value": "above 50 μg/ml"},
      {"measurement": "IL12/23 p40 mRNA expression", "setting": "IL12/23 p40 mRNA", "value": "inhibited IL12/23 p40 mRNA expression during the whole tested time period"},
      {"measurement": "decrease of peak arthritis clinical score relative to the control mice", "setting": "DBA/1 male mice; 0.4 mg/kg by gavage daily from day 22", "value": 42, "unit": "%"},
      {"measurement": "arthritis severity (arthritis clinical score)", "setting": "DBA/1 male mice; 0.4 mg/kg by gavage daily from day 22, followed until day 36", "value": "significantly decreased arthritis severity throughout the study period"},
      {"measurement": "production of IL12/23 p40", "setting": "IL12/23 p40", "value": "inhibited production of IL12/23 p40 by bone marrow-derived cells in a dose-dependent manner"}
    ]},
    {"compound": "CCCCCCCCCCCCCCCCOC[C@H](COP(=O)([O-])OCC[N+](C)(C)C)OCCCCC(O)CO", "note": "(stereo partly drawn) [di-OH, 1-Hexadecyl-2-(5,6-dihydroxy)hexanyl-glycero-3-phosphocholine]", "values": [
      {"measurement": "dose at which (significant) toxicity was detected", "setting": "[2]; peritoneal macrophages, 24 hours, doses 2-150 μg/ml", "value": "≥ 20", "unit": "µg/mL"},
      {"measurement": "decrease of atherosclerotic lesion area as compared to the control (PBS)", "setting": "LDL-RD male mice", "value": 25, "unit": "%"}
    ]},
    {"compound": "CCCCCCCCCCCCCCCCOCC(COP(=O)([O-])OCC[N+](C)(C)C)OCCCCC(OC)OC", "note": "(stereo not drawn) [diMeAc, 1-hexadecyl-2-(5′,5′-dimethoxypentyl)-glycero-3-phosphocholine]", "values": [
      {"measurement": "decrease of atherosclerotic lesion area as compared to the control (PBS)", "setting": "ApoE KO mice", "value": 23, "unit": "%"}
    ]}
  ]
}
